Measurements reported in patent US12447156B2, “Treating progressive familial intrahepatic cholestasis (PFIC) with IBAT inhibitors” (ALBIREO AB, priority 2020, dated 2025).

How the values were obtained:
patients with PFIC [1] = assay: PEDFIC 2 open-label extension trial, interim analysis: safety (TEAEs); format: in vivo, human
Description: (§1) Study Design • This phase 3 study included a screening period (for newly enrolled patients [i.e., cohort 2] only) and a 72-week treatment period (FIG. 9) in which all patients received oral, once-daily odevixibat 120 μg/kg. • Patients returned to the clinic 4 and 12 weeks after the first dose of odevixibat and then approximately every 10 to 12 weeks thereafter. • Following the 72-week treatment period, patients either enrolled in an optional extension for continued treatment or returned for a follow-up visit 4 weeks after ending study drug. Outcomes, Assessments, and Statistical Analysis • The primary efficacy outcomes were to assess the effects of odevixibat on sBAs and pruritus, including mean changes and proportion of patients meeting response criteria. • sBA responders were defined as patients who achieved a normalization of sBAs or reduction of ≥70%. • Pruritus responders were defined as patients who achieved a ≥1-point drop on the pruritus assessment. • Secondary outcomes included characterizing the long-term safety and tolerability of odevixibat, as well as the effects of odevixibat on growth, biliary diversion and/or liver transplantation, and markers of cholestasis and liver disease. • For the P1O and PIP groups, there were 2 baselines (PEDFIC 1 baseline and PEDFIC 2 baseline); for those in cohort 2, baseline refers to the value prior to initiation of odevixibat in PEDFIC 2. • This interim analysis focuses on data collected after 24 weeks of treatment in PEDFIC 2. • T tests were used to calculate P values for primary outcomes in the P1O group only; other outcomes were summarized descriptively.

patients with PFIC [2] = assay: PEDFIC 2 open-label phase 3 extension trial, interim analysis: efficacy; format: in vivo, human; conditions: for mean change from baseline in sBAs through PEDFIC 2 week 12: odevixibat naive at PEDFIC 2 baseline
Description: After treatment in the first trial (Example 1), patients were eligible to enroll in a second trial, a 72-week open-label extension trial. In this ongoing 72-week open-label extension trial, PFIC patients were treated with odevixibat 120 μg/kg/day. The 69 patients (PFIC1 (26%), PFIC2 (65%) or PFIC3 (7%)) treated with 120 μg/kg/day for up to 48 weeks experienced a durable effect on serum bile acids reduction and improvement in growth velocity based on review of z scores for height, weight and BMI, and improvement in ALT, AST and total bilirubin. The effects were maintained for patients treated for 18 months or longer. The example details the interim analysis through 24 weeks of treatment.
as §1

[3] = Cohort 2, through week 24 of PEDFIC 2, n 4
[4] = P1O, through week 24 of PEDFIC 2, n 21
[5] = P1P, through week 24 of PEDFIC 2, n 9

## CCCCC1(CCCC)CN(c2ccccc2)c2cc(SC)c(OCC(=O)N[C@@H](C(=O)N[C@@H](CC)C(=O)O)c3ccc(O)cc3)cc2S(=O)(=O)N1 [Odevixibat, 1,1-dioxo-3,3-dibutyl-5-phenyl-7-methylthio-8-(N-{(R)-α-[N-((S)-1-carboxypropyl)carbamoyl]-4-hydroxybenzyl}carbamoylmethoxy)-2,3,4,5-tetrahydro-1,2,5-benzothiadiazepine]
Patients with PFIC [1]; PEDFIC 2
  fat-soluble vitamin deficiencies refractory to clinically recommended vitamin supplementation: no new or worsening fat-soluble vitamin deficiencies
Patients with PFIC [1]; PEDFIC 2, Cohort 2, n = 16
  Any TEAE, patients: 8 (50.0) n (%)
  Drug-related TEAE by preferred term: Blood bilirubin increased: 3 (18.8) n (%)
  Drug-related TEAE by preferred term: Cough: 0 n (%)
  Drug-related TEAE by preferred term: Diarrhea: 0 n (%)
  Drug-related TEAE by preferred term: INR increased: 2 (12.5) n (%)
  Drug-related TEAE by preferred term: Pruritus: 0 n (%)
  Drug-related TEAE by preferred term: Pyrexia: 2 (12.5) n (%)
  Drug-related TEAE by preferred term: URTI: 0 n (%)
  Drug-related TEAEs, patients: 5 (31.3) n (%)
  Mild TEAE, patients: 2 (12.5) n (%)
  Moderate TEAE, patients: 3 (18.8) n (%)
  Serious TEAEs, patients: 1 (6.3) n (%)
  Severe TEAE, patients: 3 (18.8) n (%)
  TEAEs leading to discontinuation, patients: 2 (12.5) n (%)
Patients with PFIC [1]; PEDFIC 2, P1O, n = 34
  Any TEAE, patients: 28 (82.4) n (%)
  Drug-related TEAE by preferred term: Blood bilirubin increased: 4 (11.8) n (%)
  Drug-related TEAE by preferred term: Cough: 8 (23.5) n (%)
  Drug-related TEAE by preferred term: Diarrhea: 6 (17.6) n (%)
  Drug-related TEAE by preferred term: INR increased: 2 (5.9) n (%)
  Drug-related TEAE by preferred term: Pruritus: 4 (11.8) n (%)
  Drug-related TEAE by preferred term: Pyrexia: 7 (20.6) n (%)
  Drug-related TEAE by preferred term: URTI: 9 (26.5) n (%)
  Drug-related TEAEs, patients: 10 (29.4) n (%)
  Mild TEAE, patients: 17 (50.0) n (%)
  Moderate TEAE, patients: 10 (29.4) n (%)
  Serious TEAEs, patients: 0 n (%)
  Severe TEAE, patients: 1 (2.9) n (%)
  TEAEs leading to discontinuation, patients: 0 n (%)
Patients with PFIC [1]; PEDFIC 2, P1P, n = 19
  Any TEAE, patients: 14 (73.7) n (%)
  Drug-related TEAE by preferred term: Blood bilirubin increased: 2 (10.5) n (%)
  Drug-related TEAE by preferred term: Cough: 2 (10.5) n (%)
  Drug-related TEAE by preferred term: Diarrhea: 1 (5.3) n (%)
  Drug-related TEAE by preferred term: INR increased: 2 (10.5) n (%)
  Drug-related TEAE by preferred term: Pruritus: 2 (10.5) n (%)
  Drug-related TEAE by preferred term: Pyrexia: 4 (21.1) n (%)
  Drug-related TEAE by preferred term: URTI: 5 (26.3) n (%)
  Drug-related TEAEs, patients: 5 (26.3) n (%)
  Mild TEAE, patients: 6 (31.6) n (%)
  Moderate TEAE, patients: 7 (36.8) n (%)
  Serious TEAEs, patients: 3 (15.8) n (%)
  Severe TEAE, patients: 1 (5.3) n (%)
  TEAEs leading to discontinuation, patients: 1 (5.3) n (%)
Patients with PFIC [1]; PEDFIC 2, laboratory assessments
  mean serum chemistry, hematology, urinalysis, international normalized ratio values: No clinically significant changes or safety signals
Patients with PFIC [1]; PEDFIC 2, of 50 patients overall with any TEAE
  patients reporting mild/moderate TEAEs: 45 patients
Patients with PFIC [1]; PEDFIC 2 overall
  rate of discontinuations due to TEAEs: < 30
Patients with PFIC [1]; PEDFIC 2 overall (69 patients)
  patients overall with any TEAE: 50 patients
Patients with PFIC [1]; PEDFIC 2 overall, 7 patients, through week 24
  incidence of diarrhea: 10.1%
Patients with PFIC [1]; PEDFIC 2 through week 24
  deaths or drug-related serious TEAEs: no deaths or drug-related serious TEAEs occurred
Patients with PFIC [1]; PEDFIC 2 through week 24, 120 μg/kg/day
  tolerability: generally well tolerated
Patients with PFIC [2]; Cohort 2, through week 24 of PEDFIC 2, n 2
  PELD/MELD, Mean Change From Baseline (SE): 1.7 (5.8)
Patients with PFIC [2]; [3]
  APRI, Mean Change From Baseline (SE): 0.1 (0.2)
  Serum ALT, Mean Change From Baseline (SE): −9.8 (31.1) U/L
  Serum AST, Mean Change From Baseline (SE): −7.8 (16.2) U/L
  Total bilirubin, Mean Change From Baseline (SE): −0.2 (0.5) mg/dL
Patients with PFIC [2]; P1O group, ~48 weeks cumulative odevixibat exposure, PEDFIC 1 baseline 251.8
  mean sBAs at PEDFIC 2 week 24: 85.1 µmol/L
Patients with PFIC [2]; P1O group, PEDFIC 1 baseline 3.0
  mean monthly pruritus score at PEDFIC 2 week 24: 1.4
Patients with PFIC [2]; P1O group, PEDFIC 1 baseline −1.6
  mean height Z score at week 24 of PEDFIC 2: −0.5
Patients with PFIC [2]; P1O group, baseline −0.9
  mean weight Z score after 48 weeks: 0.2
Patients with PFIC [2]; P1O, through week 24 of PEDFIC 2, n 17
  PELD/MELD, Mean Change From Baseline (SE): −0.2 (0.3)
Patients with PFIC [2]; P1O, through week 24 of PEDFIC 2, n 18
  APRI, Mean Change From Baseline (SE): −0.0 (0.1)
Patients with PFIC [2]; P1O, through week 24 of PEDFIC 2, n 20
  Serum AST, Mean Change From Baseline (SE): −14.6 (10.0) U/L
Patients with PFIC [2]; [4]
  Serum ALT, Mean Change From Baseline (SE): −26.9 (22.6) U/L
  Total bilirubin, Mean Change From Baseline (SE): −0.2 (0.1) mg/dL
Patients with PFIC [2]; P1P group (placebo in PEDFIC 1), 120 μg/kg/day, PEDFIC 2 baseline 270.8
  mean sBAs over the course of PEDFIC 2: 155.6 µmol/L
Patients with PFIC [2]; [5]
  APRI, Mean Change From Baseline (SE): 0.1 (0.1)
  PELD/MELD, Mean Change From Baseline (SE): −1.4 (1.2)
  Serum ALT, Mean Change From Baseline (SE): 16.3 (20.7) U/L
  Serum AST, Mean Change From Baseline (SE): −1.7 (5.6) U/L
  Total bilirubin, Mean Change From Baseline (SE): −1.6 (1.3) mg/dL
Patients with PFIC [2]; PEDFIC 1 baseline through week 24 of PEDFIC 2, 2 patients
  patients who underwent surgical biliary diversion or had a liver transplant: 3%
Patients with PFIC [2]; cohort 2 (newly enrolled), 120 μg/kg/day
  change in mean sBAs from baseline to week 12 of PEDFIC 2: -73.1 µmol/L
Patients with PFIC [2]; cohort 2 (newly enrolled), 120 μg/kg/day, baseline 221.5
  mean sBAs at week 12 of PEDFIC 2: 157.0 µmol/L
Patients with PFIC [2]; PFIC1, n=5
  mean change from baseline in sBAs through PEDFIC 2 week 12: −31.7
Patients with PFIC [2]; PFIC2, n=17
  mean change from baseline in sBAs through PEDFIC 2 week 12: −120.8
Patients with PFIC [2]; PFIC3, n=3
  mean change from baseline in sBAs through PEDFIC 2 week 12: −107.5
Patients with PFIC [2]; patients treated for 48 weeks
  average sBAs relative to published threshold for PFIC2 disease modification: fell below the published threshold for PFIC2 disease modification
